From ChEMBL document CHEMBL3286384, “Synthesis, cytotoxicity, antimicrobial and anti-biofilm activities of novel pyrazolo[3,4-b]pyridine and pyrimidine functionalized 1,2,3-triazole derivatives” (Bioorg Med Chem Lett, 2014)
Converted amounts (≈) assume the structure as drawn. The source made the active and inactive calls. The calls are words filed in the database; no cut-off is given here.

Assays:
A549 = assay: Cytotoxicity against human A549 cells after 24 hrs by MTT assay; type: functional, cell-based; conditions: A549, 24 h
MCF7 = assay: Cytotoxicity against human MCF7 cells after 24 hrs by MTT assay; type: functional, cell-based; conditions: MCF7, 24 h
DU-145 = assay: Cytotoxicity against human DU145 cells after 24 hrs by MTT assay; type: functional, cell-based; conditions: DU-145, 24 h
HeLa = assay: Cytotoxicity against human HeLa cells after 24 hrs by MTT assay; type: functional, cell-based
Micrococcus luteus [1] = assay: Antimicrobial activity against Micrococcus luteus MTCC 2470 after 24 hrs by well diffusion method; type: functional; conditions: MTCC 2470, 24 h
Staphylococcus aureus [2] = assay: Antimicrobial activity against Staphylococcus aureus MTCC 96 after 24 hrs by well diffusion method; type: functional; conditions: MTCC 96, 24 h
Staphylococcus aureus [3] = assay: Antimicrobial activity against Staphylococcus aureus MLS-16 MTCC 2940 after 24 hrs by well diffusion method; type: functional; conditions: MLS-16 MTCC 2940, 24 h
Bacillus subtilis [4] = assay: Antimicrobial activity against Bacillus subtilis MTCC 121 after 24 hrs by well diffusion method; type: functional; conditions: MTCC 121, 24 h
Escherichia coli [5] = assay: Antimicrobial activity against Escherichia coli MTCC 739 after 24 hrs by well diffusion method; type: functional; conditions: MTCC 739, 24 h
Pseudomonas aeruginosa [6] = assay: Antimicrobial activity against Pseudomonas aeruginosa MTCC 2453 after 24 hrs by well diffusion method; type: functional; conditions: MTCC 2453, 24 h
Raoultella planticola [7] = assay: Antimicrobial activity against Klebsiella planticola MTCC 530 after 24 hrs by well diffusion method; type: functional; conditions: MTCC 530, 24 h
Candida albicans = conditions: MTCC 3017
Description: Antimicrobial activity against Candida albicans MTCC 3017 after 24 hrs by well diffusion method

Micrococcus luteus [8] = assay: Bactericidal activity against Micrococcus luteus MTCC 2470 after 24 hrs by agar plating method; type: functional; conditions: MTCC 2470, 24 h
Staphylococcus aureus [9] = assay: Bactericidal activity against Staphylococcus aureus MTCC 96 after 24 hrs by agar plating method; type: functional; conditions: MTCC 96, 24 h
Staphylococcus aureus [10] = assay: Bactericidal activity against Staphylococcus aureus MLS-16 MTCC 2940 after 24 hrs by agar plating method; type: functional; conditions: MLS-16 MTCC 2940, 24 h
Bacillus subtilis [11] = assay: Bactericidal activity against Bacillus subtilis MTCC 121 after 24 hrs by agar plating method; type: functional; conditions: MTCC 121, 24 h
Escherichia coli [12] = assay: Bactericidal activity against Escherichia coli MTCC 739 after 24 hrs by agar plating method; type: functional; conditions: MTCC 739, 24 h
Pseudomonas aeruginosa [13] = assay: Bactericidal activity against Pseudomonas aeruginosa MTCC 2453 after 24 hrs by agar plating method; type: functional; conditions: MTCC 2453, 24 h
Raoultella planticola [14] = assay: Bactericidal activity against Klebsiella planticola MTCC 530 after 24 hrs by agar plating method; type: functional; conditions: MTCC 530, 24 h
Micrococcus luteus [15] = assay: Antimicrobial activity against Micrococcus luteus MTCC 2470 assessed as inhibition of biofilm formation after 24 hrs by crystal violet staining-based assay; type: functional, organism-based; conditions: MTCC 2470, 24 h
Staphylococcus aureus [16] = assay: Antimicrobial activity against Staphylococcus aureus MTCC 96 assessed as inhibition of biofilm formation after 24 hrs by crystal violet staining-based assay; type: functional, organism-based; conditions: MTCC 96, 24 h
Staphylococcus aureus [17] = assay: Antimicrobial activity against Staphylococcus aureus MLS-16 MTCC 2940 assessed as inhibition of biofilm formation after 24 hrs by crystal violet staining-based assay; type: functional, organism-based; conditions: MLS-16 MTCC 2940, 24 h
Raoultella planticola [18] = assay: Antimicrobial activity against Klebsiella planticola MTCC 530 assessed as inhibition of biofilm formation after 24 hrs by crystal violet staining-based assay; type: functional, organism-based; conditions: MTCC 530, 24 h
Pseudomonas aeruginosa [19] = assay: Antimicrobial activity against Pseudomonas aeruginosa MTCC 2453 assessed as inhibition of biofilm formation after 24 hrs by crystal violet staining-based assay; type: functional, organism-based; conditions: MTCC 2453, 24 h

SMILES | IC50 (A549) | IC50 (MCF7) | IC50 (DU-145) | IC50 (HeLa) | MIC (Micrococcus luteus [1]) | MIC (Staphylococcus aureus [2]) | MIC (Staphylococcus aureus [3]) | MIC (Bacillus subtilis [4]) | MIC (Escherichia coli [5]) | MIC (Pseudomonas aeruginosa [6]) | MIC (Raoultella planticola [7]) | MIC (Candida albicans) | also measured
CCCCCCCCn1nc(-n2cc(Cn3c(N)nc(C(F)(F)F)cc3=O)nn2)c2ccc(C(F)(F)F)nc21 | 10.1 µM | 11.3 µM | 12.2 µM | 9.4 µM | – | – | – | – | – | – | – | – | –
C#CCn1nc(-n2cc(COc3cc(C(F)(F)F)nc(N)n3)nn2)c2ccc(C(F)(F)F)nc21 | 4.1 µM | > 100 µM | 4.7 µM | > 100 µM | > 250 µg/mL | > 250 µg/mL | > 250 µg/mL | > 250 µg/mL | > 250 µg/mL | > 250 µg/mL | > 250 µg/mL | inactive | –
CCn1nc(-n2cc(COc3cc(C(F)(F)F)nc(N)n3)nn2)c2ccc(C(F)(F)F)nc21 | 25.4 µM | > 100 µM | 27.7 µM | > 100 µM | > 250 µg/mL | > 250 µg/mL | > 250 µg/mL | > 250 µg/mL | > 250 µg/mL | > 250 µg/mL | > 250 µg/mL | inactive | –
O=c1[nH]cc(F)c(=O)[nH]1 [FLUOROURACIL] | 1.3 µM | 1.4 µM | 1.5 µM | 1.3 µM | – | – | – | – | – | – | – | – | –
CCCCCCCCCCn1nc(-n2cc(Cn3c(N)nc(C(F)(F)F)cc3=O)nn2)c2ccc(C(F)(F)F)nc21 | 14.3 µM | 15.7 µM | 17.1 µM | 13.4 µM | – | – | – | – | – | – | – | – | –
C#CCn1nc(-n2cc(Cn3c(N)nc(C(F)(F)F)cc3=O)nn2)c2ccc(C(F)(F)F)nc21 | 21.2 µM | 12.4 µM | 23.4 µM | 10.2 µM | – | – | – | – | – | – | – | – | –
Nc1n[nH]c2nc(C(F)(F)F)ccc12 | 22.4 µM | 58.4 µM | 29.1 µM | 60.2 µM | – | – | – | – | – | – | – | – | –
CCn1nc(-n2cc(Cn3c(N)nc(C(F)(F)F)cc3=O)nn2)c2ccc(C(F)(F)F)nc21 | > 100 µM | 95.2 µM | > 100 µM | 62.3 µM | – | – | – | – | – | – | – | – | –
O=C(O)c1cn(C2CC2)c2cc(N3CCNCC3)c(F)cc2c1=O [CIPROFLOXACIN] | – | – | – | – | 0.9 µg/mL (≈ 2.72 µM) | 0.9 µg/mL (≈ 2.72 µM) | 0.9 µg/mL (≈ 2.72 µM) | 0.9 µg/mL (≈ 2.72 µM) | 0.9 µg/mL (≈ 2.72 µM) | 0.9 µg/mL (≈ 2.72 µM) | 0.9 µg/mL (≈ 2.72 µM) | inactive | MBC (Micrococcus luteus [8]): 0.58 µg/mL (≈ 1.75 µM); MBC (Staphylococcus aureus [9]): 0.58 µg/mL (≈ 1.75 µM); MBC (Staphylococcus aureus [10]): 1.17 µg/mL (≈ 3.53 µM); MBC (Bacillus subtilis [11]): 1.17 µg/mL (≈ 3.53 µM); MBC (Escherichia coli [12]): 0.58 µg/mL (≈ 1.75 µM); MBC (Pseudomonas aeruginosa [13]): 0.58 µg/mL (≈ 1.75 µM); MBC (Raoultella planticola [14]): 1.17 µg/mL (≈ 3.53 µM)
CC[C@H]1OC(=O)[C@H](C)[C@@H](O[C@H]2C[C@@](C)(OC)[C@@H](O)[C@H](C)O2)[C@H](C)[C@@H](O[C@@H]2O[C@H](C)C[C@H](N(C)C)[C@H]2O)[C@](C)(O)C[C@@H](C)C(=O)[C@H](C)[C@@H](O)[C@]1(C)O [ERYTHROMYCIN] | – | – | – | – | – | – | – | – | – | – | – | – | IC50 (Micrococcus luteus [15]): 0.24 µg/mL (≈ 0.327 µM); IC50 (Staphylococcus aureus [16]): 0.32 µg/mL (≈ 0.436 µM); IC50 (Staphylococcus aureus [17]): 0.32 µg/mL (≈ 0.436 µM); IC50 (Raoultella planticola [18]): 0.21 µg/mL (≈ 0.286 µM); IC50 (Pseudomonas aeruginosa [19]): 0.26 µg/mL (≈ 0.354 µM)
CCCCCCCCn1nc(-n2cc(COc3cc(C(F)(F)F)nc(N)n3)nn2)c2ccc(C(F)(F)F)nc21 | 5.7 µM | 24.7 µM | 6.3 µM | 22.7 µM | > 250 µg/mL | > 250 µg/mL | > 250 µg/mL | > 250 µg/mL | > 250 µg/mL | > 250 µg/mL | > 250 µg/mL | inactive | –
Nc1nc(C(F)(F)F)cc(=O)n1Cc1cn(-c2n[nH]c3nc(C(F)(F)F)ccc23)nn1 | 9.5 µM | 14.4 µM | 10.5 µM | 16.1 µM | – | – | – | – | – | – | – | – | –
Nc1nc(OCc2cn(-c3nn(CCC(F)(F)C(F)(F)C(F)(F)C(F)(F)C(F)(F)C(F)(F)C(F)(F)C(F)(F)F)c4nc(C(F)(F)F)ccc34)nn2)cc(C(F)(F)F)n1 | 33.7 µM | > 100 µM | 37.7 µM | > 100 µM | > 250 µg/mL | > 250 µg/mL | > 250 µg/mL | > 250 µg/mL | > 250 µg/mL | > 250 µg/mL | > 250 µg/mL | inactive | –
CCOC(=O)Cn1nc(-n2cc(Cn3c(N)nc(C(F)(F)F)cc3=O)nn2)c2ccc(C(F)(F)F)nc21 | 16.2 µM | 12.2 µM | 18.3 µM | 11.4 µM | – | – | – | – | – | – | – | – | –
C=CCn1nc(-n2cc(Cn3c(N)nc(C(F)(F)F)cc3=O)nn2)c2ccc(C(F)(F)F)nc21 | > 100 µM | 20.2 µM | > 100 µM | 18.2 µM | – | – | – | – | – | – | – | – | –
Nc1nc(C(F)(F)F)cc(=O)n1Cc1cn(-c2nn(CCC(F)(F)C(F)(F)C(F)(F)C(F)(F)C(F)(F)C(F)(F)C(F)(F)C(F)(F)F)c3nc(C(F)(F)F)ccc23)nn1 | 68.2 µM | > 100 µM | 88.8 µM | > 100 µM | – | – | – | – | – | – | – | – | –
C=CCn1nc(-n2cc(COc3cc(C(F)(F)F)nc(N)n3)nn2)c2ccc(C(F)(F)F)nc21 | > 100 µM | 19.4 µM | > 100 µM | 18.4 µM | 7.8 µg/mL (≈ 16.1 µM) | > 250 µg/mL | > 250 µg/mL | > 250 µg/mL | > 250 µg/mL | > 250 µg/mL | > 250 µg/mL | inactive | –
